Data on 3 molecules can be found in publication PMC3043256 (Cancer Chemotherapy and Pharmacology, 2010).

Read-outs that look alike come from different tables or passages of the source.

In one data set the test system is ABCB1. As to conditions: in vitro; cited from earlier work.
For another data set, the system named is ABCG2. To be noted: in vitro; cited from earlier work.
Data set [1] is described as follows: Literature clinical pharmacokinetics of sunitinib. As to conditions: follows from half-life ~50 h.
Data set [2] concerns organic anion transporting polypeptides (OATPs). As to conditions: in vitro; cited from earlier work.
For data set [3] the following is noted: cited from earlier work.
The format of data set [4] is in vivo, human. As to conditions: for Increase of sunitinib exposure by grapefruit juice: model estimate; for AUC(0-t): AUC0–24 h.
The conditions of data set [5]: cited from earlier work. This is another data set of the same source.
A short description of data set [6]: Midazolam pharmacokinetics. The format is in vivo, human.
The conditions of data set [7]: cited from earlier work. The source holds these as a separate data set.
[8] abbreviates: final population PK model, cancer patients.
Where [9] appears, read: human, plasma, oral, sunitinib with grapefruit juice when simultaneously taken, mean (range).
Setting [10] is: sunitinib with grapefruit juice when simultaneously taken, mean (range).

In the case of `CCN(CC)CCNC(=O)c1c(C)[nH]c(/C=C2\C(=O)Nc3ccc(F)cc32)c1C` [sunitinib, Sunitinib malate], the “Substrate of drug transporter ABCB1” value with ABCB1 is reported as “moderate substrate”. The “Substrate of drug transporter ABCG2” value with ABCG2 is “moderate substrate”. Besides, in data set [1], the “Time to reach steady-state PK” value is on record as ~ 8 days. In addition, the “Affinity for OATPs” value in data set [2] is on record as “no affinity”. Further, in data set [3], the “Protein binding in vitro” value is given as “extensively protein bound”. Further, the “Increase of sunitinib exposure by grapefruit juice” value (shortened to “Increase of sunitinib exposure”) in [4] (GJ consumed 7 h before the sunitinib dose) is given as ~ 8.9%. Further, in [4] (setting [8]), the “Absorption lag time, estimate” value is 0.487 h and the “ka (absorption rate constant), estimate” value is 0.468 h⁻¹. In addition, the “Cl/F (apparent clearance), estimate” value in data set [4] (final population PK model, cancer patients, oral sunitinib 25-50 mg once daily) is 50.5 L/h. Further, in data set [4] (human, plasma, oral), the Tmax – broadly, the time at which the peak concentration occurs – came out at 8.2 h; the Vd/F – broadly, the apparent distribution volume after extravascular dosing – worked out at 3210 L; the half-life (in general, the time in which the quantity being followed falls by half) was 53 h. In [4] (setting [9]), the AUC(0-t) (in general, the area under the concentration-time curve up to a stated or last time point) was 1240 ng·h/mL and the peak level (Cmax) was 14.4 ng/mL. Also, the AUC(0-t) in data set [4] (human, plasma, oral, sunitinib without grapefruit juice, steady state, mean (range)) came to 1120 ng·h/mL. In addition, the concentration in data set [4] (human, plasma, oral, sunitinib without grapefruit juice, mean (range)) peaked (Cmax) at 13 ng/mL. The “Increase of sunitinib exposure” value in [4] (sunitinib 24 h after last GJ consumption) is ~ 5.3%. The “Increase of sunitinib exposure” value in data set [4] (sunitinib 72 h after last GJ consumption) was ~ 1.3%. Further, the “Increase of sunitinib exposure” value in data set [4] (sunitinib started 1 week after last GJ consumption) is given as ~ 0.07%. Further, in [4] (setting [10]), the T max is given as 8.2 (2.8–12.4) h and the “t 1/2 (elimination half-life)” value was 53 (12–107) h. In addition, in data set [5], the “Apparent volume of distribution” value is reported as ~ 2,000 liters, the “Effect of food intake on pharmacokinetics” value is reported as “does not affect”, the “Interpatient variability in sunitinib clearance” value is recorded as ~ 40% and the half-life was ~ 50 h.
In data set [6] (human, plasma, po, 7.5 mg, Midazolam AUC0–24 h, without GJ, single oral 7.5 mg midazolam, mean (±SEM)), `Cc1ncc2n1-c1ccc(Cl)cc1C(c1ccccc1F)=NC2` [midazolam] had an AUC(0-t) of 122 ng·h/mL. The “Increase of midazolam exposure (AUC0–24 h) by GJ” value in data set [6] (second vs first PK day) is listed as ~ 50%.
Turning to `Cc1cn(-c2cc(NC(=O)c3ccc(C)c(Nc4nccc(-c5cccnc5)n4)c3)cc(C(F)(F)F)c2)cn1` [nilotinib], the “Effect of grapefruit juice on drug exposure” value in data set [7] was “increase”.
